Data: article PMC10218498, “Exploring BenzylethoxyAryl Urea Scaffolds for Multitarget Immunomodulation Therapies” (International Journal of Molecular Sciences, 2023)

Assays:
LCK = experiment: Immunoblotting of OT-1 CTL signaling proteins: LCK; assay type: cell-based, mice; conditions: OT-1, 20 μM, 24 h
Description: We next studied the effect of our compounds on the signaling cascade downstream of the TCR. […] However, both the expression and phosphorylation of LCK were increased in response to all compounds. The effects on ZAP70 and LAT were more complex, with opposing effects on total protein expression versus phosphorylation. Thus, all compounds modulated signaling downstream of the TCR in a manner that is likely to impact T-cell activation and activity.
CD8+ cells were obtained from the inguinal, axillary, brachial, and mesenteric lymph nodes previously collected from OT-1 mice. Lymph node cells were isolated by mashing through a […] cell strainer. Cells were resuspended in IMDM cell media at a concentration of 0.3 million cells/mL. N4 ovalbumin peptide was added at a concentration of 10 nM, and cells were incubated for 48 h at 5% CO2, 37 °C. On day 2 from recollection, cells were pelleted at 1300 rpm for 5 min and washed with PBS to remove N4 peptide. The cell pellet was resuspended in fresh IMDM media in a new flask in a 0.3 million cells/mL and supplemented with IL-2 at 20 ng/mL. After incubation for a further 48 h (day 4), cells were re-seeded in fresh IMDM media at a concentration of 0.3 million cells/mL supplemented with IL-2 at 20 ng/mL. Cells were cultured for a further 48 h prior to use on day 6 in functional assays.
To study the effect of the compounds in the signaling pathway of CTLs, the compound was incubated for 24 h at 20 μM. After this time, cells were collected and washed twice in PBS and lysed in radioimmunoprecipitation assay (RIPA) lysis buffer (50 mM tris-HCl at pH 7.4, 150 mM sodium chloride, 5 mM EGTA, 0.1% SDS, 1% NP-40, and 1% deoxycholate) supplemented with a protease and phosphatase inhibitor cocktail (mini complete ULTRA Protease tablet and phosSTOP tablet from Roche, Basel, Switzerland). Lysates were clarified by high-speed centrifugation (17,000 rpm for 15 min at 4 °C). Protein concentration was measured using a Micro BCA Protein Assay (Thermo Scientific, Waltham, MA, USA), and 10 μg to 30 μg of total protein were supplemented with 2X SDS sample buffer [tris (pH 6.8), 20% glycerol, 5% SDS, b-mercaptoethanol, and bromophenol blue) and boiled at 95 °C for 5 min. […] Bound Ab was detected by incubation with anti-rabbit and anti-mouse horseradish peroxidase secondary Ab (Cell Signaling Technology) and visualized using the Bio-Rad ChemiDoc MP Imaging System.

[1] = system: HMEC-1 microtube formation; experiment: Tube formation inhibition assay on Matrigel; assay type: cell-based, human; conditions: HMEC-1 on Matrigel, 24 h
Protocol: The capacity to inhibit the formation of a new vasculature network formed by HMEC-1 was evaluated on compounds 8 and 14 at different concentrations.
Wells of an IBIDI μ-slide angiogenesis (IBIDI, Martinsried, Germany) were coated with 15 μL of Matrigel® (10 mg/mL, BD Biosciences) at 4 °C. After gelatinization at 37 °C for 30 min, HMEC-1 cells were seeded at 2 × 10^4 cells/well in 25 μL of culture medium on top of the Matrigel and were incubated 30 min at 37 °C while are attached. Then, compounds were added and dissolved in 25 μL of culture medium, and after 24 h of incubation at 37 °C, tube formation was evaluated.

## COc1ccc(COc2cccc(NC(=O)Nc3ccc(F)cc3)c2)cc1 [Compound 2]
LCK
  LCK protein expression (Western blot quantification): 176
  pY394-LCK protein expression (Western blot quantification): 143
  pY505-LCK protein expression (Western blot quantification): 140
other
  melting point: 201 to 205 °C

## COc1ccc(COc2cccc(NC(=O)Nc3ccc(Br)cc3)c2)cc1 [Compound 8]
[1]
  Minimum Active Conc. (inhibition of microtube formation): 20 µM

## COc1ccc(COc2cccc(NC(=O)Nc3ccc(OC)cc3)c2)cc1 [Compound 11]
LCK
  LCK protein expression (Western blot quantification): 168
  pY394-LCK protein expression (Western blot quantification): 184
  pY505-LCK protein expression (Western blot quantification): 157

## COc1ccc(COc2cccc(NC(=O)Oc3ccccc3)c2)cc1 [Compound 14]
[1]
  Minimum Active Conc. (inhibition of microtube formation): 20 µM
LCK
  LCK protein expression (Western blot quantification): 175
  pY394-LCK protein expression (Western blot quantification): 130
  pY505-LCK protein expression (Western blot quantification): 145
